Experimental data: PubChem BioAssay (NCI)
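Tested at 5 concentrations; 48 h exposure; 96-well plates; endpoints linearly interpolated, else capped at highest concentration. TGI denotes the concentration required for complete inhibition of growth.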

Experiments:
Assay in all cases: DTP human tumour cell line panel, 48 h
[1] = tested on: OVCAR-4 ovarian
[2] = tested on: UACC-62 melanoma
[3] = tested on: SW-620 colon
[4] = tested on: UACC-257 melanoma
[5] = tested on: 786-0 renal
[6] = tested on: EKVX NSCLC
[7] = tested on: U251 CNS
[8] = tested on: DMS 114 small cell lung
[9] = tested on: DLD-1 colon
[10] = tested on: HOP-62 NSCLC
[11] = tested on: M14 melanoma
[12] = tested on: HOP-92 NSCLC
[13] = tested on: A549 NSCLC
[14] = tested on: SK-OV-3 ovarian
[15] = tested on: HOP-18 NSCLC
[16] = tested on: NCI-H460 lung
[17] = tested on: SF-268 CNS
[18] = tested on: ACHN renal
[19] = tested on: IGROV1 ovarian
[20] = tested on: SK-MEL-28 melanoma
[21] = tested on: RPMI-8226 leukemia
[22] = tested on: SF-539 CNS
[23] = tested on: SNB-78 CNS
[24] = tested on: RXF 393 renal
[25] = tested on: KM12 colon
[26] = tested on: COLO 205 colon
[27] = tested on: OVCAR-3 ovarian
[28] = tested on: SK-MEL-2 melanoma
[29] = tested on: HL-60(TB) leukemia
[30] = tested on: SF-295 CNS
[31] = tested on: HCT-116 colon
[32] = tested on: LXFL 529 NSCLC
[33] = tested on: OVCAR-8 ovarian
[34] = tested on: KM20L2 colon
[35] = tested on: MOLT-4 leukemia
[36] = tested on: XF 498 CNS
[37] = tested on: DMS 273 small cell lung
[38] = tested on: SK-MEL-5 melanoma
[39] = tested on: TK-10 renal
[40] = tested on: HT29 colon
[41] = tested on: M19-MEL melanoma
[42] = tested on: SNB-19 CNS
[43] = tested on: MALME-3M melanoma
[44] = tested on: CCRF-CEM leukemia
[45] = tested on: HCC-2998 colon
[46] = tested on: OVCAR-5 ovarian
[47] = tested on: UO-31 renal
[48] = tested on: HCT-15 colon
[49] = tested on: A498 renal
[50] = tested on: NCI-H23 lung
[51] = tested on: K-562 leukemia
[52] = tested on: LOX IMVI melanoma
[53] = tested on: CAKI-1 renal
[54] = tested on: SNB-75 CNS
[55] = tested on: NCI-H226 lung
[56] = tested on: NCI-H522 lung
[57] = tested on: SN12C renal
[58] = tested on: SR leukemia

Measured: TGI

Cc1c2nc3ccccc3sc-2cc(=O)c1C
> 90.6 µM: [27]
> 85.5 µM: [29]
79.7 µM: [8]
> 46.8 µM: [4]
> 25.2 µM: [28]
70.3 µM: [2]
29.7 µM: [41]
> 91.6 µM: [51]
> 89.2 µM: [26]
not listed: [57] | [58]
> 100 µM: all other assays above

CN1C(=O)N(C)C(N2CCCC2)c2c1nc1ccccn1c2=O (stereo unspecified)
not listed: [38] | [46] | [53]
> 100 µM: all other assays above

CCOC(=O)C1(C(=O)OCC)OC(=O)NC2=C1CCCC2
not listed: [1] | [2] | [11] | [48] | [53] | [55] | [57] | [58]
> 100 µM: all other assays above
